Measured values from ChEMBL document CHEMBL1139752, “New rifabutin analogs: synthesis and biological activity against Mycobacterium tuberculosis” (2006).
Values after ≈ are worked out from the molar mass of the structure shown.

Columns and labels:
Assay type in all cases: functional
[1] = tested on: Mycobacterium tuberculosis; assay: Antimycobacterial activity against rifampicin and rifabutin resistant Mycobacterium tuberculosis ATCC 35838
[2] = tested on: Mycobacterium tuberculosis; assay: Antimycobacterial activity against streptomycin resistant Mycobacterium tuberculosis ATCC 35820
[3] = tested on: Mycobacterium tuberculosis; assay: Antimycobacterial activity against rifampicin and rifabutin resistant Mycobacterium tuberculosis
[4] = tested on: Mycobacterium tuberculosis; assay: Antimycobacterial activity against ethambutol resistant Mycobacterium tuberculosis ATCC 35837
[5] = tested on: Mycobacterium tuberculosis; assay: Antimycobacterial activity against isoniazid resistant Mycobacterium tuberculosis ATCC 35822

SMILES	MIC [1]	MIC [2]	MIC [3]	MIC [4]	MIC [5]
CCCCN1[C@@H](c2ccccc2)C[C@@]2(C[C@H]1c1ccccc1)N=C1C(=C3NC(=O)/C(C)=C\C=C\[C@H](C)[C@H](O)[C@@H](C)[C@H](O)[C@H](C)[C@H](OC(C)=O)[C@H](C)[C@@H](OC)/C=C/O[C@@]4(C)Oc5c(C)c(O)c(c1c5C4=O)C3=O)N2	1 µg/mL (≈ 1 µM)	0.02 µg/mL (≈ 0.02 µM)	> 1 µg/mL	0.02 µg/mL (≈ 0.02 µM)	0.02 µg/mL (≈ 0.02 µM)
COc1ccc([C@@H]2C[C@]3(C[C@H](c4ccc(OC)cc4)N2)N=C2C(=C4NC(=O)/C(C)=C\C=C\[C@H](C)[C@H](O)[C@@H](C)[C@H](O)[C@H](C)[C@H](OC(C)=O)[C@H](C)[C@@H](OC)/C=C/O[C@@]5(C)Oc6c(C)c(O)c(c2c6C5=O)C4=O)N3)cc1	1 µg/mL (≈ 0.997 µM)	0.02 µg/mL (≈ 0.0199 µM)	> 1 µg/mL	0.02 µg/mL (≈ 0.0199 µM)	0.02 µg/mL (≈ 0.0199 µM)
CO[C@H]1/C=C/O[C@@]2(C)Oc3c(C)c(O)c4c(c3C2=O)C2=N[C@@]3(C[C@@H](c5ccccc5)N[C@@H](c5ccccc5)C3)NC2=C(NC(=O)/C(C)=C\C=C\[C@H](C)[C@H](O)[C@@H](C)[C@H](O)[C@H](C)[C@H](OC(C)=O)[C@@H]1C)C4=O	0.5 µg/mL (≈ 0.53 µM)	0.02 µg/mL (≈ 0.0212 µM)	0.3 µg/mL (≈ 0.318 µM)	0.02 µg/mL (≈ 0.0212 µM)	0.02 µg/mL (≈ 0.0212 µM)
C=CCN1[C@@H](c2ccccc2)C[C@@]2(C[C@H]1c1ccccc1)N=C1C(=C3NC(=O)/C(C)=C\C=C\[C@H](C)[C@H](O)[C@@H](C)[C@H](O)[C@H](C)[C@H](OC(C)=O)[C@H](C)[C@@H](OC)/C=C/O[C@@]4(C)Oc5c(C)c(O)c(c1c5C4=O)C3=O)N2	> 1 µg/mL	0.02 µg/mL (≈ 0.0203 µM)	> 1 µg/mL	0.02 µg/mL (≈ 0.0203 µM)	0.02 µg/mL (≈ 0.0203 µM)
CO[C@H]1/C=C/O[C@@]2(C)Oc3c(C)c(O)c4c(c3C2=O)C2=N[C@]3(C[C@@H](c5ccccc5)N[C@@H](c5ccccc5)C3)NC2=C(NC(=O)/C(C)=C\C=C\[C@H](C)[C@H](O)[C@@H](C)[C@H](O)[C@H](C)[C@H](OC(C)=O)[C@@H]1C)C4=O	1 µg/mL (≈ 1.06 µM)	0.02 µg/mL (≈ 0.0212 µM)	> 1 µg/mL	0.02 µg/mL (≈ 0.0212 µM)	0.02 µg/mL (≈ 0.0212 µM)
CO[C@H]1/C=C/O[C@@]2(C)Oc3c(C)c(O)c4c(c3C2=O)C2=N[C@@]3(C[C@@H](c5ccc(F)cc5)N[C@@H](c5ccc(F)cc5)C3)NC2=C(NC(=O)/C(C)=C\C=C\[C@H](C)[C@H](O)[C@@H](C)[C@H](O)[C@H](C)[C@H](OC(C)=O)[C@@H]1C)C4=O	0.5 µg/mL (≈ 0.511 µM)	0.02 µg/mL (≈ 0.0204 µM)	0.3 µg/mL (≈ 0.306 µM)	0.02 µg/mL (≈ 0.0204 µM)	0.02 µg/mL (≈ 0.0204 µM)
C=CCCN1[C@@H](c2ccccc2)C[C@@]2(C[C@H]1c1ccccc1)N=C1C(=C3NC(=O)/C(C)=C\C=C\[C@H](C)[C@H](O)[C@@H](C)[C@H](O)[C@H](C)[C@H](OC(C)=O)[C@H](C)[C@@H](OC)/C=C/O[C@@]4(C)Oc5c(C)c(O)c(c1c5C4=O)C3=O)N2	> 1 µg/mL	0.02 µg/mL (≈ 0.0201 µM)	> 1 µg/mL	0.02 µg/mL (≈ 0.0201 µM)	0.02 µg/mL (≈ 0.0201 µM)
CO[C@H]1/C=C/O[C@@]2(C)Oc3c(C)c(O)c4c(c3C2=O)C2=NC3(CCN(CC(C)C)CC3)NC2=C(NC(=O)/C(C)=C\C=C\[C@H](C)[C@H](O)[C@@H](C)[C@@H](O)[C@@H](C)[C@H](OC(C)=O)[C@@H]1C)C4=O [RIFABUTIN]	> 5 µg/mL	0.02 µg/mL (≈ 0.0236 µM)	> 5 µg/mL	0.02 µg/mL (≈ 0.0236 µM)	0.02 µg/mL (≈ 0.0236 µM)
CO[C@H]1/C=C/O[C@@]2(C)Oc3c(C)c(O)c4c(O)c(c(/C=N/N5CCN(C)CC5)c(O)c4c3C2=O)NC(=O)/C(C)=C\C=C\[C@H](C)[C@H](O)[C@@H](C)[C@@H](O)[C@@H](C)[C@H](OC(C)=O)[C@@H]1C [RIFAMPIN]	> 5 µg/mL	0.02 µg/mL (≈ 0.0243 µM)	> 5 µg/mL	0.02 µg/mL (≈ 0.0243 µM)	0.02 µg/mL (≈ 0.0243 µM)
